Experiment [1] relates to Aβ40 in conditioned medium of cells stably expressing Amyloid Precursor Protein (APP). As to the kind of experiment: In vitro BACE cell-based assay (Aβ40 in conditioned medium, sandwich ELISA). (ELISA stands for enzyme-linked immunosorbent assay.)
In experiment [2] the target is Beta Secretase enzyme (BACE) (Homo sapiens, UniProt P56817). Description: In vitro enzymatic BACE FRET (fluorescence resonance energy transfer) assay.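 Also: fluorescence read after 1 h with 50 nM quenched peptide substrate spanning the BACE cleavage site, in pH 4.2 acetate buffer containing 10% DMSO and nonionic detergent.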 It counts as biochemical.
Beta Secretase enzyme (BACE), sequence (P56817 46-501): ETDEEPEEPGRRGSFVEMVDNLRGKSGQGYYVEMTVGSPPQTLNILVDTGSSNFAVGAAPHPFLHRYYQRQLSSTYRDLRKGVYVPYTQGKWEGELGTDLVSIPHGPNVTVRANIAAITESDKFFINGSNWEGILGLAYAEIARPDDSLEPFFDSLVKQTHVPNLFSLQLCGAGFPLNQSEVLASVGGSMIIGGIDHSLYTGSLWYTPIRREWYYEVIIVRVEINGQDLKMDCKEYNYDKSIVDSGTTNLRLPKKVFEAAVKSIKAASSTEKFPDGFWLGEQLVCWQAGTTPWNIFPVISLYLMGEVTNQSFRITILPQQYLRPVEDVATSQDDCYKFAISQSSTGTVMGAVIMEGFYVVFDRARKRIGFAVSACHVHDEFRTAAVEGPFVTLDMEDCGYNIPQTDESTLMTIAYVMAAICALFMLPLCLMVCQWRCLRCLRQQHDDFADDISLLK
Where [3] appears, read: Homo sapiens, HEK293, HEK cells, cell-based assay, read-out: HEK cell assay (IC50).
Setting [4] is: BACE enzyme FRET assay, read-out: BACE1 FRET assay (IC50).
The mark [5] stands for this setting: Homo sapiens, HEK293, Table 1, HEK cells, read-out: HEK cell assay.
[6] abbreviates: Table 1, read-out: BACE1 FRET assay.
Where [7] appears, read: BACE enzyme assay, read-out: BACE1 FRET assay (IC50).
Setting [8] is: Homo sapiens, HEK293, HEK cell-based assay, IC50's in uM, read-out: HEK cell assay.
The mark [9] stands for this setting: BACE enzyme assay, IC50's in uM, read-out: BACE1 FRET assay.
[10] abbreviates: HEK cells, cell-based assay, read-out: HEK cell assay (IC50).
[11] abbreviates: Homo sapiens, HEK293, cell-based assay, HEK cells, IC50's in uM, read-out: HEK cell assay.

Like-named read-outs stand apart in the source and are kept apart here.
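For HEK cell assay (IC50) in this document: compounds added as a dilution series, secreted peptide quantified by europium time-resolved fluorescence readout, potency fitted from percent of control versus compound concentration.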
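For HEK cell assay in this document: compounds added as a dilution series, secreted peptide quantified by europium time-resolved fluorescence readout, potency fitted from percent of control versus compound concentration.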

Regarding `CCOCC(=O)N[C@@H](Cc1ccc2c(c1)OCO2)[C@H](O)CN[C@H]1CC2(CCC2)Oc2ncc(CC(C)C)cc21` [compound 720], the IC50 was 0.134 µM in experiment [1] (Homo sapiens, HEK293, HEK cell-based assay IC50, read-out: HEK cell assay) and 0.057 µM in experiment [2] (BACE enzyme assay IC50, read-out: BACE1 FRET assay).

Consider `COCC(=O)N[C@@H](Cc1ccc(F)cc1)[C@H](O)CN[C@H]1CC2(CCC2)Oc2ncc(CC3(C(F)(F)F)CC3)cc21` [compound 311], for which the values for the IC50 in experiment [1] (setting [3]) and in experiment [2] (setting [4]) were 0.307 µM and 0.0515 µM, respectively.

Consider `COCC(=O)N[C@@H](Cc1cccc(F)c1)[C@H](O)CN[C@H]1CC2(CCC2)Oc2ncc(C[C@H](C)C(F)(F)F)cc21` [compound 325], for which the IC50 in experiment [1] (setting [5]) was 0.0137 µM; in experiment [2] (setting [6]) it was 0.00371 µM.

On to `COCC(=O)N[C@@H](Cc1cc(Br)c2c(c1)OCO2)[C@H](O)CN[C@H]1CC2(CCC2)Oc2ncc(CC(C)(C)F)cc21` [compound 211], for which the IC50 in experiment [1] (setting [3]) was determined as 0.312 µM; in experiment [2] (setting [4]), 0.423 µM.

Take `COCC(=O)N[C@@H](Cc1ccc(F)cc1)[C@H](O)CN[C@H]1CC2(CCC2)Oc2ccc(CC(C)(C)C)nc21` [compound 123, N-((1S,2R)-3-(((4′S)-6′-(2,2-dimethylpropyl)-3′,4′-dihydrospiro[cyclobutane-1,2′-pyrano[3,2-b]pyridin]-4′-yl)amino)-1-((4-fluorophenyl)methyl)-2-hydroxypropyl)-2-(methyloxy)acetamide]: the IC50 in experiment [1] (setting [3]) is 3.81 µM; in experiment [2] (setting [7]), 3.72 µM.

On to `COC(C)C(=O)NC(Cc1cc(F)c2c(c1)OCO2)C(O)CNC1CC2(CCC2)Oc2ncc(CC(C)(C)C)cc21` (stereo not shown) [compound 300], for which the IC50 in experiment [1] (setting [3]) came out at 0.137 µM; in experiment [2] (setting [4]), 0.0571 µM.

For `CC(=O)N[C@@H](Cc1ccc2c(c1)OCO2)[C@H](O)CN[C@H]1CC2(CCC2)Oc2ncc(CC(C)(C)C#N)cc21` [compound 88], the IC50 in experiment [1] (setting [3]) amounted to 0.016 µM; in experiment [2] (setting [7]) it was 0.0485 µM.

Consider `CC(C)(C)Cc1cnc2c(c1)[C@@H](NC[C@@H](O)[C@H](Cc1cc(F)cc(F)c1)NC(=O)OCc1cncs1)CC1(CCC1)O2` [compound 93], for which the IC50 in experiment [1] (setting [3]) came to 0.0792 µM; in experiment [2] (setting [7]) it was 0.00495 µM.

Turning to `COCC(=O)N[C@@H](Cc1ccc(F)cc1)[C@H](O)CN[C@H]1CC2(CCC2)Oc2ncc(CC(C)(F)F)cc21` [compound 271], the IC50 in experiment [1] (setting [3]) is 0.1 µM; in experiment [2] (setting [4]), 0.0387 µM.

In the case of `COCC(=O)N[C@@H](Cc1ccc(F)cc1)[C@H](O)CN[C@H]1CC2(CCC2)Oc2ncc([C@@H](O)C(C)(C)C)cc21` [compound 189], the IC50 in experiment [1] (setting [3]) is 1 µM; in experiment [2] (setting [4]), 0.88 µM.

As for `COCC(=O)NC(Cc1cc(F)cc(F)c1)C(O)CNC1CC2(CCC2)Oc2ncc(C(O)C(F)(F)F)cc21` (stereo not shown) [compound 349], the IC50 in experiment [1] (setting [5]) worked out at 0.139 µM; in experiment [2] (setting [6]) it was 0.166 µM.

On to `C=Cc1cccc(C[C@H](NC(=O)COC)[C@H](O)CN[C@H]2CC3(CCC3)Oc3ncc(CC(C)C)cc32)c1` [compound 832], for which the IC50 in experiment [1] (setting [8]) worked out at 0.038 µM; in experiment [2] (setting [9]) it was 0.007 µM.

With `COCC(=O)N[C@@H](Cc1ccc(F)cc1)[C@H](O)CN[C@H]1CC2(CCC2)Oc2ncc(CCC(F)(F)F)cc21` [compound 193], the IC50 was 0.518 µM in experiment [1] (setting [3]) and 0.202 µM in experiment [2] (setting [4]).

Consider `CC(C)(C)Cc1cnc2c(c1)[C@@H](NC[C@@H](O)[C@H](Cc1cc(F)cc(F)c1)NC(=O)C(Cl)Cl)CC1(CCC1)O2` [compound 95], for which the IC50 in experiment [1] (setting [3]) stood at 0.0167 µM; in experiment [2] (setting [7]), 0.00043 µM.

As to `CC(=O)N[C@@H](Cc1ccc(F)cc1)[C@H](O)CN[C@H]1CC2(CCC2)Oc2ncc(CC(C)(C)C(F)F)cc21` [compound 159], the results for the IC50 in experiment [1] (setting [3]) and in experiment [2] (setting [7]) were 0.0363 µM and 0.0192 µM, respectively.

For the compound `CC(C)(C)Cc1cnc2c(c1)[C@@H](NC[C@@H](O)[C@H](Cc1cc(F)cc(F)c1)NC(=O)CCl)CC1(CCC1)O2` [compound 104], the IC50 is 0.0187 µM in experiment [1] (setting [10]) and 0.00369 µM in experiment [2] (setting [7]).

Turning to `COCC(=O)N[C@@H](Cc1cc(Cl)c2c(c1)OCO2)[C@H](O)CN[C@H]1CC2(CCC2)Oc2ncc(CC(C)(C)C)cc21` [compound 208], the IC50 turned out to be 0.00996 µM in experiment [1] (setting [3]) and 0.00641 µM in experiment [2] (setting [4]).

Turning to `COCC(=O)N[C@@H](Cc1ccc(F)cc1)[C@H](O)CN[C@H]1CC2(CCC2)Oc2cnc(CC(C)(C)F)cc21` [compound 255], the IC50 was determined as 0.216 µM in experiment [1] (setting [3]) and 0.19 µM in experiment [2] (setting [4]).

Take `COCC(=O)N[C@@H](Cc1ccc(F)cc1)[C@H](O)CN[C@H]1CC2(CCC2)Oc2ncc(CC(C)C)cc21` [compound 332]: the IC50 in experiment [1] (setting [5]) stood at 0.0189 µM; in experiment [2] (setting [6]) it was 0.0109 µM.

On to `C#Cc1ccc(C[C@H](NC(=O)COC)[C@H](O)CN[C@H]2CC3(CCC3)Oc3ncc(CC(C)C)cc32)cc1` [Example 855], for which the IC50 in experiment [1] (setting [11]) turned out to be 0.174 µM; in experiment [2] (setting [9]), 0.062 µM.

Take `COCC(=O)N[C@@H](Cc1ccc(F)cc1)[C@H](O)CN[C@H]1CC2(CCC2)Oc2c(F)cc(CC(C)(C)C#N)cc21` [compound 172]: the IC50 is 0.0433 µM in experiment [1] (setting [3]) and 0.0186 µM in experiment [2] (setting [7]).

For `COCC(=O)N[C@@H](Cc1ccc(F)c(Cl)c1)[C@H](O)CN[C@H]1CC2(CCC2)Oc2ncc(CC(C)(C)C)cc21` [compound 351], the IC50 stood at 0.0123 µM in experiment [1] (setting [5]) and 0.00275 µM in experiment [2] (setting [6]).

`CC(=O)N[C@@H](Cc1ccc(F)c(Br)c1)[C@H](O)CN[C@H]1CC2(CCC2)Oc2ncc(OC(C)(C)C)cc21` [compound 353, N-((1S,2R)-1-((3-bromo-4-fluorophenyl)methyl)-3-(((4′S)-6′-((1,1-dimethylethyl)oxy)-3′,4′-dihydrospiro[cyclobutane-1,2′-pyrano[2,3-b]pyridin]-4′-yl)amino)-2-hydroxypropyl)acetamide]: the results for the IC50 in experiment [1] (setting [5]) and in experiment [2] (setting [6]) were 0.424 µM and 0.12 µM, respectively.

On to `CC(=O)N[C@@H](Cc1cc(Br)c2c(c1)OCO2)[C@H](O)CN[C@H]1CC2(CCC2)Oc2ncc(CC(C)(C)C)cc21` [compound 203], for which the IC50 in experiment [1] (setting [3]) amounted to 0.0211 µM; in experiment [2] (setting [4]) it was 0.00284 µM.

Take `C#Cc1cccc(C[C@H](NC(=O)COC)[C@H](O)CN[C@H]2CC3(CCC3)Oc3ncc(CC(C)(C)C)cc32)c1F` [compound 911]: in experiment [1] (setting [11]), the IC50 amounted to 0.144 µM.

In the case of `CO[C@H](C)C(=O)N[C@@H](Cc1cccc(F)c1)[C@H](O)CN[C@H]1CC2(CCC2)Oc2c(F)cc(CC(C)(C)C)cc21` [compound 222], the IC50 in experiment [1] (setting [3]) came to 0.0127 µM; in experiment [2] (setting [4]), 0.00445 µM.

For `CC(C)(C)Cc1cnc2c(c1)[C@@H](NC[C@@H](O)[C@H](Cc1ccc3c(c1)OCO3)NC(=O)OCc1cncs1)CC1(CCC1)O2` [compound 101], the figures for the IC50 in experiment [1] (setting [10]) and in experiment [2] (setting [7]) were 1.85 µM and 0.159 µM, respectively.

With `CCO[C@@H](C)C(=O)N[C@@H](Cc1cccc(-c2nccs2)c1)[C@H](O)CN[C@H]1CC2(CCC2)Oc2ncc(CC(C)(C)C)cc21` [Example 893], in experiment [1] (setting [11]), the IC50 worked out at 0.012 µM.

In the case of `COCC(=O)N[C@@H](Cc1cccc(-c2ccccn2)c1)[C@H](O)CN[C@H]1CC2(CCC2)Oc2ncc(CC(C)(C)C)cc21` [compound 841, N-((1S,2R)-3-(((4′S)-6′-(2,2-dimethylpropyl)-3′,4′-dihydrospiro[cyclobutane-1,2′-pyrano[2,3-b]pyridin]-4′-yl)amino)-2-hydroxy-1-(3-(2-pyridinyl)benzyl)propyl)-2-methoxyacetamide], the IC50 in experiment [1] (setting [8]) was found to be 0.018 µM.

Consider `COCC(=O)N[C@@H](Cc1cccc(-c2nc(C)cs2)c1)[C@H](O)CN[C@H]1CC2(CCC2)Oc2ncc(CC(C)(C)C)cc21` [compound 758], for which the IC50 in experiment [1] (setting [8]) was 0.014 µM.

As for `COC(C)C(=O)NC(Cc1ccc2c(c1)OCO2)C(O)CNC1CC2(CC(O)C2)Oc2cnccc21` [compound 245, (2R)—N-((1S,2R)-1-(1,3-benzodioxol-5-ylmethyl)-2-hydroxy-3-(((1r,3R,4′S)-3-hydroxy-3′,4′-dihydrospiro[cyclobutane-1,2′-pyrano[2,3-c]pyridin]-4′-yl)amino)propyl)-2-(methyloxy)propanamide], in experiment [2] (setting [4]), the IC50 came out at 40 µM.

`COCC(=O)N[C@@H](Cc1ccc(F)cc1)[C@H](O)CN[C@H]1C[C@]2(C[C@@H](C#N)C2)Oc2ncc(CC(C)(C)C)cc21` [compound 261, N-((1S,2R)-3-(((1r,3S,4′S)-3-cyano-6′-(2,2-dimethylpropyl)-3′,4′-dihydrospiro[cyclobutane-1,2′-pyrano[2,3-b]pyridin]-4′-yl)amino)-1-((4-fluorophenyl)methyl)-2-hydroxypropyl)-2-(methyloxy)acetamide]: in experiment [2] (setting [4]), the IC50 amounted to 0.0389 µM.

For the compound `CCO[C@H](C)C(=O)N[C@@H](Cc1cccc(-c2nccs2)c1)[C@H](O)CN[C@H]1CC2(CCC2)Oc2ncc(CC(C)(C)C)cc21` [Example 894], in experiment [1] (setting [11]), the IC50 turned out to be 0.018 µM.

`COCC(=O)N[C@@H](Cc1cccc(-c2nccs2)c1F)[C@H](O)CN[C@H]1CC2(CCC2)Oc2ncc(CC(C)(C)C)cc21` [compound 908]: the IC50 in experiment [1] (setting [11]) was 0.1 µM.

Turning to `COCC(=O)N[C@@H](Cc1cc(Br)cc(OC)c1)[C@H](O)CN[C@H]1CC2(CCC2)Oc2ncc(CC(C)(C)C)cc21` [compound 917], in experiment [2] (setting [9]), the IC50 amounted to 0.014 µM.

Turning to `C#Cc1ccc(C[C@H](NC(=O)COC)[C@H](O)CN[C@H]2CC3(CCC3)Oc3ncc(CC(C)(C)C)cc32)cc1` [Example 885], the IC50 in experiment [1] (setting [11]) turned out to be 0.099 µM.

Regarding `CC(=O)NC(Cc1ccc(F)cc1)C(O)CNC1CC2(CC(C#N)C2)Oc2ncc(CC(C)(C)C)cc21` [compound 262, N-((1S,2R)-3-(((1r,3S,4′S)-3-cyano-6′-(2,2-dimethylpropyl)-3′,4′-dihydrospiro[cyclobutane-1,2′-pyrano[2,3-b]pyridin]-4′-yl)amino)-1-((4-fluorophenyl)methyl)-2-hydroxypropyl)acetamide], in experiment [2] (setting [4]), the IC50 turned out to be 0.0465 µM.

Take `CC(=O)N[C@@H](Cc1cccc(F)c1)[C@H](O)CN[C@H]1CC2(CCC2)Oc2ncc([C@@H](F)[C@H](C)C(F)(F)F)cc21` [compound 323]: the IC50 in experiment [2] (setting [6]) came out at 0.365 µM.

These data come from patent publication US8163909B2, “Substituted hydroxyethyl amine compounds as beta-secretase modulators and methods of use” (Amgen Inc., priority 2007, dated 2012).
